For assay [1], the system named is F. coeruleum. In words: Example 7 sensitivity testing of potato tuber pathogens to thiabendazole derivatives. The class given is cell-based. Particulars: Trial B; for inhibition at 25 µM / inhibition at 250 µM: read-out: Inhibition (%) of mycelial growth. How it is done:
(§1) In vitro tests of the IL thiabendazolium docusate were performed in comparison to the neutral fungicide using selected isolates of Fusarium spp., the cause of potato dry rot. F. coeruleum and F. culmorum are sensitive to thiabendazole whereas isolates of F. sambucinum are frequently resistant. Isolates of Phoma spp., the cause of gangrene, and Phytophthora erythroseptica, the cause of pink rot, were also tested. All except F. sambucinum ex SASA were isolated in a laboratory. F. sambucinum ex SASA was supplied by SASA (Science and Advice for Scottish Agriculture, Roddinglaw Road, Edinburgh, EH12 9F, UK).
(§2) In each test three replicate plates for each organism per concentration were used and tests were repeated at least once.

Assay [2] relates to Phytophthora erythroseptica. Described as above. The class given is cell-based. Particulars: for Inhibition (%) of mycelial growth / inhibition at 25 µM / inhibition at 250 µM: Trial B; for inhibition at 25 µM / inhibition at 250 µM: Phytophthora erythroseptica, read-out: Inhibition (%) of mycelial growth. Here is the method: as §1, §2
For assay [3], the system named is F. culmorum. The assay is described as above. The class given is cell-based. The following applies: isolate F. culmorum P13, Trial B. Here is the method:
as §1, §2

Another assay concerns Phoma foveata. Described as above. Type of assay: cell-based. Particulars: isolate Phoma foveata BL2 05 T3, Trial B. Here is the method: as §1, §2
Another assay has as its system Phoma exigua. Described as above. The class given is cell-based. The following applies: isolate Phoma exigua 9.1, Trial B. How it is done:
as §1, §2

The subject of the next assay is F. sambucinum. The assay is described as above. Type of assay: cell-based. The following applies: Trial B; for inhibition at 25 µM / inhibition at 250 µM: Fusarium sambucinum, read-out: Inhibition (%) of mycelial growth. How it is done:
as §1, §2

Assay [4] relates to F. culmorum. Description: Example 5 agar plate mycelial growth test of TBZ derivatives. The class given is cell-based. Particulars: isolate F. culmorum P13, Trial A.
The next assay concerns P. foveata. The assay is described as above. The following applies: Trial A; for Inhibition (%) of mycelial growth: isolate P. foveata BL2 05 T3.
The next assay concerns F. sulphureum. The assay is described as above. The following applies: 5-7 days, TBZ docusate Trial A; for Inhibition (%) of mycelial growth: isolate F. sulphureum ex SASA.
Another assay concerns P. exigua. The assay is described as above. Particulars: Trial A; for Inhibition (%) of mycelial growth: isolate P. exigua 9.1.
The next assay has as its system P. erythroseptica. The assay is described as above. Particulars: Trial A; for Inhibition (%) of mycelial growth: isolate P. erythroseptica BL2/08 P31.
Assay [5] has as its system F. coeruleum. Described as above. Particulars: Trial A; for Inhibition (%) of mycelial growth: isolate F. coeruleum ex B7/06 T8.
Experimental: (§3) Both TBZ docusate and TBZ stearate were tested at final concentrations of 250 μm and 25 μm in agar. To prepare the TBZ docusate stock solution for 250 μm, 0.155 g of TBZ docusate prepared according to Trial A was added to a 10 mL volumetric flask and was dissolved in 10 mL of ethanol. The solution was mixed thoroughly. To prepare the TBZ docusate stock solution for 25 μm, 1 ml of the above stock solution was pipetted into a second 10 mL flask and 10 mL ethanol was added. The solution was mixed thoroughly. To prepare the TBZ stearate stock solution for 250 μm, 0.121 g of TBZ stearate was added to a 10 mL volumetric flask and was dissolved in 10 mL ethanol. The solution was mixed thoroughly. To prepare the TBZ stearate stock solution for 25 μm, 1 mL of the 250 μm TBZ stearate stock solution was pipetted into a second 10 mL flask and 10 mL ethanol was added. The solution was mixed thoroughly.
(§4) The agar was prepared and autoclaved. Potato dextrose agar (PDA) was used for the Fusarium species and Phytophthora erythroseptica and malt agar was used for the Phoma species. The agar was allowed to cool to 50° C. Each of the stock solutions was added to the agar at the rate of 10 mL stock solution per liter of agar to give the two final concentrations, for both TBZ stearate and docusate, in agar. Also prepared were a 1% ethanol control (10 mL per liter of agar) and an untreated agar as a second control. The plates were prepared in triplicate for each concentration.
(§5) For each pathogen isolate tested, 3 plates of 250 μm/1, 3 plates of 25 μm/1, 3 plates of 1% ethanol, and 3 plates of untreated agar were inoculated using an agar plug cut with a no. 3 cork borer from the margin of an actively-growing culture on agar. The plates were incubated at an appropriate temperature (usually 18-20° C.) in darkness. The growth rate was monitored and assessed after 5-7 days. The growth was assessed by measuring colony diameters minus plug (two measurements at right-angles) per plate. The percent reduction was calculated with respect to the control.
(§6) Pure thiabendazole (TBZ; 0.5 g) obtained from MSD Agvet (Rahway, N.J.) was dissolved in water (10 mL) by adding the minimum required volume (c. 0.5 mL) of hypophosphorous acid and heating gently with stirring, then made up to 100 mL with water to give a stock solution (25 mM). TBZ docusate (0.155 g) or TBZ stearate (0.121 g) was dissolved in ethanol (100 ml) to give stock solutions (25 mM). A ten-fold dilution of each of these stock solutions was prepared (in water for TBZ and in ethanol for TBZ docusate and stearate). […] In addition, agar with 1% v/v ethanol and unamended agar was prepared (ethanol and unamended controls). The agar was poured into Petri plates (9 cm) and allowed to set.
(§7) Isolates of the appropriate potato tuber pathogens were grown on PDA for Fusarium spp. and Phytophthora erythroseptica or on MA for Phoma spp. Each isolate to be tested was inoculated onto three replicate plates of the two concentrations of each compound and onto ethanol and unamended agar controls using plugs (6 mm diameter) cut from the margins of actively growing cultures. Plates were incubated in darkness at 20° C. and mycelial growth measured (two measurements at right-angles for each plate) after 5-7 days (depending on the growth rates).
The mark [6] stands for this setting: isolate F. coeruleum ex B7/06 T8, 25 μM in agar.
[7] abbreviates: isolate F. coeruleum ex B7/06 T8, 250 μM in agar.
[8] abbreviates: isolate F. coeruleum ex B16/08 P31, 25 μM in agar.
The mark [9] stands for this setting: isolate F. coeruleum ex B16/08 P31, 250 μM in agar.
Setting [10] is: isolate Phytophthora erythroseptica BL2/08 P31, 25 μM in agar.
Where [11] appears, read: isolate Phytophthora erythroseptica BL2/08 P31, 250 μM in agar.
Setting [12] is: isolate Phytophthora erythroseptica Rooster Eire, 25 μM in agar.
Setting [13] is: isolate Phytophthora erythroseptica Rooster Eire, 250 μM in agar.
Where [14] appears, read: isolate F. sambucinum L'gall 11, 25 μM in agar.
Setting [15] is: isolate F. sambucinum L'gall 11, 250 μM in agar.
[16] abbreviates: isolate F. sambucinum L'gall 53, 25 μM in agar.
[17] abbreviates: isolate F. sambucinum L'gall 53, 250 μM in agar.
Where [18] appears, read: isolate F. sambucinum ex SASA, 25 μM in agar.
Where [19] appears, read: isolate F. sambucinum ex SASA, 250 μM in agar, vs 1% ethanol control.

Structures are written as SMILES. Read-outs that look alike come from different tables or passages of the source.

Experimental for F. sulphureum: as §3, §4, §5, §6, §7
Experimental for P. erythroseptica: as §3, §4, §5, §6, §7
Experimental for P. exigua: as §3, §4, §5, §6, §7
Experimental for P. foveata: as §3, §4, §5, §6, §7

For the molecule `CCCCCCCCCCCCCCCCCC(=O)O.c1ccc2[nH]c(-c3cscn3)nc2c1` [TBZ stearate, thiabendazolium stearate], the “Inhibition (%) of mycelial growth” value in the assay with F. coeruleum [1] (setting [6]) worked out at 99%; in the assay on F. coeruleum [1] (setting [7]), 99%; with F. coeruleum [1] (setting [8]), 100%; with F. coeruleum [1] (setting [9]) it was 100%; in assay [2] (setting [10]), 10%; in assay [2] (setting [11]), 54%. The “Inhibition (%) of mycelial growth” value in assay [2] (setting [12]) is listed as 11%; in assay [2] (setting [13]), 34%; with F. culmorum [3] (25 μM in agar), 100%; with F. culmorum [3] (250 μM in agar), 100%; in the assay on Phoma foveata (25 μM in agar), 97%; in the assay with Phoma foveata (250 μM in agar) it was 99%. Moreover, the “Inhibition (%) of mycelial growth” value in the assay with Phoma exigua (25 μM in agar) came to 95%; in the assay on Phoma exigua (250 μM in agar), 99%; in the assay with F. sambucinum (setting [14]), 10%; in the assay on F. sambucinum (setting [15]) it was 82%; with F. sambucinum (setting [16]), 20%; in the assay with F. sambucinum (setting [17]), 82%. For the same molecule, the entries for the “Inhibition (%) of mycelial growth” value with F. sambucinum (setting [18]) and with F. sambucinum (setting [19]) were 24% and 89%, respectively. Also, in assay [2] (in words, Table 5), the “activity against P. erythroseptica compared with thiabendazole alone” value was “did not enhance the activity”.
For `c1ccc2[nH]c(-c3cscn3)nc2c1` [TBZ stearate, thiabendazolium stearate], the “Inhibition (%) of mycelial growth” value in the assay on F. culmorum [4] (25 μM in agar) is 100%; in the assay on F. culmorum [4] (250 μM in agar), 100%; in the assay with P. foveata (25 μM in agar), 96%; in the assay with P. foveata (250 μM in agar), 99%; in the assay on F. sulphureum (25 μM in agar), 25%; in the assay with F. sulphureum (250 μM in agar), 90%. For the same molecule, the “Inhibition (%) of mycelial growth” value is recorded as 93% in the assay with P. exigua (25 μM in agar); 98% in the assay on P. exigua (250 μM in agar); 2% with P. erythroseptica (25 μM in agar); 69% in the assay with P. erythroseptica (250 μM in agar); 98% with F. coeruleum [5] (25 μM in agar); 98% with F. coeruleum [5] (250 μM in agar).
For the molecule `c1ccc2[nH]c(-c3cscn3)nc2c1` [TBZ, thiabendazole, reference compound], the inhibition at 25 µM in the assay on F. culmorum [4] (Fusarium culmorum, 25 μM in agar) is 100%; in the assay on P. foveata (Boeremia foveata, read-out: Inhibition (%) of mycelial growth, isolate P. foveata BL2 05 T3, 25 μM in agar) it was 98%; with F. sulphureum (read-out: Inhibition (%) of mycelial growth, isolate F. sulphureum ex SASA, 25 μM in agar), 17%; in the assay with P. exigua (Boeremia inoxydabilis, read-out: Inhibition (%) of mycelial growth, isolate P. exigua 9.1, 25 μM in agar) it was 92%; in the assay on F. coeruleum [5] (read-out: Inhibition (%) of mycelial growth, isolate F. coeruleum ex B7/06 T8, 25 μM in agar), 99%; in the assay with F. coeruleum [1] (setting [6]) it was 99%. Further, the inhibition at 25 µM with F. coeruleum [1] (setting [8]) amounted to 100%; in [2] (setting [10]) it was 4%; in assay [2] (setting [12]) it was 8%; in the assay with F. culmorum [3] (Fusarium culmorum, 25 μM in agar, read-out: Inhibition (%) of mycelial growth), 100%; in the assay on Phoma foveata (Boeremia foveata, 25 μM in agar, read-out: Inhibition (%) of mycelial growth), 98%; in the assay on Phoma exigua (25 μM in agar, read-out: Inhibition (%) of mycelial growth), 95%. The results for the inhibition at 25 µM with F. sambucinum (setting [14]), in the assay on F. sambucinum (setting [16]) and with F. sambucinum (setting [18]) were 8%, 19% and 22%, respectively. For the same molecule, the inhibition at 250 µM with F. culmorum [4] (Fusarium culmorum, 250 μM in agar) was 100%; in the assay on P. foveata (Boeremia foveata, read-out: Inhibition (%) of mycelial growth, isolate P. foveata BL2 05 T3, 250 μM in agar) it was 100%; in the assay with F. sulphureum (read-out: Inhibition (%) of mycelial growth, isolate F. sulphureum ex SASA, 250 μM in agar), 87%; in the assay with P. exigua (Boeremia inoxydabilis, read-out: Inhibition (%) of mycelial growth, isolate P. exigua 9.1, 250 μM in agar), 100%; with P. erythroseptica (Phytophthora erythroseptica, read-out: Inhibition (%) of mycelial growth, isolate P. erythroseptica BL2/08 P31, 250 μM in agar) it was 76%; in the assay with F. coeruleum [5] (read-out: Inhibition (%) of mycelial growth, isolate F. coeruleum ex B7/06 T8, 250 μM in agar), 98%. Besides, the inhibition at 250 µM in the assay on F. coeruleum [1] (setting [7]) came to 99%; in the assay with F. coeruleum [1] (setting [9]), 100%; in assay [2] (setting [11]), 51%; in [2] (setting [13]), 31%; in the assay on F. culmorum [3] (Fusarium culmorum, 250 μM in agar, read-out: Inhibition (%) of mycelial growth) it was 100%; in the assay on Phoma foveata (Boeremia foveata, 250 μM in agar, read-out: Inhibition (%) of mycelial growth), 100%. For the same molecule, the inhibition at 250 µM turned out to be 100% in the assay with Phoma exigua (250 μM in agar, read-out: Inhibition (%) of mycelial growth); 76% with F. sambucinum (setting [15]); 93% in the assay on F. sambucinum (setting [17]); 89% in the assay with F. sambucinum (setting [19]). For the same molecule, in the assay with P. erythroseptica (25 μM in agar), the “Inhibition (%) of mycelial growth” value was 9%.

Source of the values: patent US20130217735A1, “FUNGICIDAL COMPOSITIONS AND METHODS OF USE” (Agri-Food and BioSciences Institute, priority 2010, published 2013).
